From patent US20080241208A1, “Methods, Compositions and Devices For Promoting Anglogenesis” (priority 2005, published 2008) come the findings set out here.

The structures appear in SMILES notation.

One test has as its system HUVECs. As to the kind of experiment: In-vitro angiogenesis model: network formation in collagen gel matrix. The class given is cell-based. The note with it: pulsed with PMA, bFGF and NOC18 (10-9) for 2 hr followed by PMA, bFGF and VEGF-C for 70 hr; AngioQuant; FIG. 3. The source says: FIG. 4 depicts network formation in HUVECs cultured in collagen gel matrix and treated with PMA, bFGF, and VEGF-C for 72 hr (Positive control). […] Image on left of each figure is stained with phalloidin (cytoskeletal Actin-F marker) and the nuclear dye, Hoechst. Image on right depicts network formation (red lines) used by AngioQuant quantification program (Niemiströ et al 2005). Magnification=4×. The number of networks is 48 in FIG. 3, 44 in FIG. 4, 12 in FIG. 5.

The next test has as its system Rabbits. Nature of the test: In-vivo angiogenesis rabbit subcutaneous implant studies. From the text: Rabbits were implanted subcutaneously with nitric oxide generating agent dibenzo[e,k]-2,3,8,9-tetramethyl-1,4,7,10-tetraaza-cyclododeca-1,3,7,9-tetraene, cyclen and plain polymer disks.

In the test on HUVECs, `NCCN(CCN)/[N+]([O-])=N/O` [NOC18] returned a number of networks of 48.
In the case of `CC1=C(C)N=c2ccccc2=NC(C)=C(C)N=c2ccccc2=N1` [dibenzo[e,k]-2,3,8,9-tetramethyl-1,4,7,10-tetraaza-cyclododeca-1,3,7,9-tetraene], the “blood vessel formation around disks” value in the test on Rabbits (explants sectioned and stained with H&E, 20× magnification) was “increased blood vessel formation”. Further, the “angiogenic activity versus control” value in the test on Rabbits (subcutaneous polymer disk explants at 28 d and 8 weeks) is recorded as “increased angiogenic activity”.
